According to ChEMBL document CHEMBL1201861, “Genomics of Drug Sensitity in Cancer screening data, Wellcome Trust Sanger Institute”:

Tests used:
Assay in all cases: cells
Details in all cases: Homo sapiens
EC-GI-10 = type: functional, cell-based
Description: SANGER: Inhibition of human EC-GI-10 cell growth in a cell viability assay.

NCI-H510A = type: functional, cell-based;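 also: growth inhibition of NCI-H510A cells, read out with a cell viability assay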
Description: SANGER: Inhibition of human NCI-H510A cell growth in a cell viability assay.

Becker = type: functional, cell-based;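 also: growth inhibition of Becker cells, read out with a cell viability assay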
Description: SANGER: Inhibition of human Becker cell growth in a cell viability assay.

KU812 cell line = type: functional, cell-based;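 also: growth inhibition of KU812 cells, read out with a cell viability assay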
Description: SANGER: Inhibition of human KU812 cell growth in a cell viability assay.

LU-134-A = type: functional, cell-based
Description: SANGER: Inhibition of human LU-134-A cell growth in a cell viability assay.

MHH-PREB-1 = type: functional, cell-based;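 also: cell viability assay measuring inhibition of proliferation of human MHH-PREB-1 cells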
Description: SANGER: Inhibition of human MHH-PREB-1 cell growth in a cell viability assay.

LU-139 = type: functional, cell-based
Description: SANGER: Inhibition of human LU-139 cell growth in a cell viability assay.

ES1 = type: functional, cell-based
Description: SANGER: Inhibition of human ES1 cell growth in a cell viability assay.

HT = type: functional, cell-based
Description: SANGER: Inhibition of human HT cell growth in a cell viability assay.

ONS-76 = type: functional, cell-based;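 also: growth inhibition of human ONS-76 cells, read out with a cell viability assay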
Description: SANGER: Inhibition of human ONS-76 cell growth in a cell viability assay.

SK-N-FI = type: functional, cell-based;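 also: cell viability assay measuring growth inhibition of human SK-N-FI cells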
Description: SANGER: Inhibition of human SK-N-FI cell growth in a cell viability assay.

ATN-1 = type: functional, cell-based;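 also: growth inhibition of human ATN-1 cells, read out with a cell viability assay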
Description: SANGER: Inhibition of human ATN-1 cell growth in a cell viability assay.

BB30-HNC = type: functional, cell-based;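 also: growth inhibition of the cultured cell line, read out by a cell viability assay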
Description: SANGER: Inhibition of human BB30-HNC cell growth in a cell viability assay.

NCI-H446 = type: functional, cell-based;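 also: growth inhibition of NCI-H446 cells determined by a cell viability assay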
Description: SANGER: Inhibition of human NCI-H446 cell growth in a cell viability assay.

LB2241-RCC = type: functional, cell-based;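 also: cell viability assay measuring how strongly the cultured human renal carcinoma line is prevented from growing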
Description: SANGER: Inhibition of human LB2241-RCC cell growth in a cell viability assay.

DMS-79 = type: functional, cell-based;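 also: growth inhibition measured with a cell viability assay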
Description: SANGER: Inhibition of human DMS-79 cell growth in a cell viability assay.

HDLM-2 = type: functional, cell-based;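 also: cell viability assay measuring suppression of HDLM-2 proliferation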
Description: SANGER: Inhibition of human HDLM-2 cell growth in a cell viability assay.

JVM-3 = type: functional, cell-based;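 also: growth inhibition of human JVM-3 cells, read out with a cell viability assay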
Description: SANGER: Inhibition of human JVM-3 cell growth in a cell viability assay.

OCI-AML2 = type: functional, cell-based;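 also: growth inhibition of OCI-AML2 cells, read out with a cell viability assay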
Description: SANGER: Inhibition of human OCI-AML2 cell growth in a cell viability assay.

NB13 = type: functional, cell-based;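 also: cell viability readout measuring growth inhibition of human NB13 cells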
Description: SANGER: Inhibition of human NB13 cell growth in a cell viability assay.

D283 Med = type: functional, cell-based
Description: SANGER: Inhibition of human D-283MED cell growth in a cell viability assay.

IST-MES1 = type: functional, cell-based;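 also: growth inhibition of IST-MES1 cells, measured with a cell viability assay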
Description: SANGER: Inhibition of human IST-MES1 cell growth in a cell viability assay.

OMC-1 = type: functional, cell-based;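 also: growth inhibition of the OMC-1 cell line, measured by a cell viability assay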
Description: SANGER: Inhibition of human OMC-1 cell growth in a cell viability assay.

CW-2 = type: functional, cell-based;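 also: growth inhibition of CW-2 cells, read out by a cell viability assay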
Description: SANGER: Inhibition of human CW-2 cell growth in a cell viability assay.

DU-4475 = type: functional, cell-based
Description: SANGER: Inhibition of human DU-4475 cell growth in a cell viability assay.

SW684 = type: functional, cell-based;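 also: growth inhibition of human SW684 cells, measured by a cell viability assay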
Description: SANGER: Inhibition of human SW684 cell growth in a cell viability assay.

U-266 = type: functional, cell-based
Description: SANGER: Inhibition of human U-266 cell growth in a cell viability assay.

SW982 = type: functional, cell-based;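 also: growth inhibition of SW982 cells, read out with a cell viability assay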
Description: SANGER: Inhibition of human SW982 cell growth in a cell viability assay.

GB-1 = type: functional, cell-based;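 also: growth of GB-1 cells judged by a viability assay, IC50 marks the concentration inhibiting growth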
Description: SANGER: Inhibition of human GB-1 cell growth in a cell viability assay.

ES6 = type: functional, cell-based;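 also: growth inhibition of human ES6 cells, read out with a cell viability assay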
Description: SANGER: Inhibition of human ES6 cell growth in a cell viability assay.

CTB-1 = type: functional, cell-based
Description: SANGER: Inhibition of human CTB-1 cell growth in a cell viability assay.

SF-539 = type: functional, cell-based;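 also: Read-out is a cell viability assay, with IC50 reflecting inhibition of cell growth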
Description: SANGER: Inhibition of human SF539 cell growth in a cell viability assay.

GI-1 = type: functional, cell-based
Description: SANGER: Inhibition of human GI-1 cell growth in a cell viability assay.

NCI-H1299 = type: functional, cell-based;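 also: growth inhibition of human NCI-H1299 cells, read out by a cell viability assay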
Description: SANGER: Inhibition of human NCI-H1299 cell growth in a cell viability assay.

MZ2-MEL = type: functional, cell-based;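 also: growth inhibition of MZ2-MEL cells read out with a cell viability assay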
Description: SANGER: Inhibition of human MZ2-MEL cell growth in a cell viability assay.

697 = type: functional, cell-based
Description: SANGER: Inhibition of human 697 cell growth in a cell viability assay.

MC116 = type: functional, cell-based;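 also: growth inhibition of MC116 cells, read out with a cell viability assay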
Description: SANGER: Inhibition of human MC116 cell growth in a cell viability assay.

MV4-11 = type: functional, cell-based, MV-4-11;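 also: cell viability readout measuring growth inhibition of human MV-4-11 cells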
Description: SANGER: Inhibition of human MV-4-11 cell growth in a cell viability assay.

BB65-RCC = type: functional, cell-based;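 also: growth inhibition of the cell line, measured with a cell viability assay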
Description: SANGER: Inhibition of human BB65-RCC cell growth in a cell viability assay.

NB69 = type: functional, cell-based;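 also: growth inhibition of NB69 cells, determined by a cell viability assay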
Description: SANGER: Inhibition of human NB69 cell growth in a cell viability assay.

NH-12 = type: functional, cell-based;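 also: growth inhibition of NH-12 cells, read out with a cell viability assay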
Description: SANGER: Inhibition of human NH-12 cell growth in a cell viability assay.

NCI-H1770 = type: functional, cell-based;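 also: growth inhibition of NCI-H1770 cells determined with a viability readout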
Description: SANGER: Inhibition of human NCI-H1770 cell growth in a cell viability assay.

ALL-PO = type: functional, cell-based;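 also: growth inhibition of ALL-PO cells, read out by a cell viability assay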
Description: SANGER: Inhibition of human ALL-PO cell growth in a cell viability assay.

TGBC24TKB = type: functional, cell-based;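 also: growth inhibition of human TGBC24TKB cells, read out with a cell viability assay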
Description: SANGER: Inhibition of human TGBC24TKB cell growth in a cell viability assay.

D-502MG = type: functional, cell-based
Description: SANGER: Inhibition of human D-502MG cell growth in a cell viability assay.

SW 954 = type: functional, cell-based;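 also: growth inhibition of SW954 human cancer cells, read out as cell viability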
Description: SANGER: Inhibition of human SW954 cell growth in a cell viability assay.

SNU1 = type: functional, cell-based;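 also: growth inhibition of human NCI-SNU-1 cells, measured with a cell viability assay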
Description: SANGER: Inhibition of human NCI-SNU-1 cell growth in a cell viability assay.

RPMI-8226 = type: functional, cell-based
Description: SANGER: Inhibition of human RPMI-8226 cell growth in a cell viability assay.

SNB-75 = type: functional, cell-based;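 also: cell viability assay measuring growth inhibition of human SNB-75 cells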
Description: SANGER: Inhibition of human SNB75 cell growth in a cell viability assay.

ES3 = type: functional, cell-based;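 also: growth inhibition of ES3 cells, read out with a cell viability assay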
Description: SANGER: Inhibition of human ES3 cell growth in a cell viability assay.

J-RT3-T3-5 = type: functional, cell-based;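 also: cell viability assay measuring growth inhibition of human J-RT3-T3-5 cells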
Description: SANGER: Inhibition of human J-RT3-T3-5 cell growth in a cell viability assay.

CP66-MEL = type: functional, cell-based;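 also: growth inhibition of CP66-MEL cells determined in a cell viability assay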
Description: SANGER: Inhibition of human CP66-MEL cell growth in a cell viability assay.

KG-1 = type: functional, cell-based;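 also: growth inhibition of KG-1 cells, read out by a cell viability assay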
Description: SANGER: Inhibition of human KG-1 cell growth in a cell viability assay.

Ramos-2G6-4C10 = type: functional, cell-based;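 also: growth inhibition of the cell line, measured by a cell viability read-out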
Description: SANGER: Inhibition of human Ramos-2G6-4C10 cell growth in a cell viability assay.

LS-513 = type: functional, cell-based
Description: SANGER: Inhibition of human LS-513 cell growth in a cell viability assay.

DMS-114 = type: functional, cell-based
SK-MEL-1 = type: functional, cell-based;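 also: growth inhibition of human SK-MEL-1 cells, read out by a cell viability assay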
Description: SANGER: Inhibition of human SK-MEL-1 cell growth in a cell viability assay.

MLMA = type: functional, cell-based;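 also: growth inhibition of MLMA cells (human), determined through a cell viability readout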
Description: SANGER: Inhibition of human MLMA cell growth in a cell viability assay.

KP-N-YS = type: functional, cell-based;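 also: cell viability assay measuring inhibition of cell line growth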
Description: SANGER: Inhibition of human KP-N-YS cell growth in a cell viability assay.

MOLT-4 = type: functional, cell-based;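 also: growth inhibition of MOLT-4 cells, determined with a cell viability readout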
Description: SANGER: Inhibition of human MOLT-4 cell growth in a cell viability assay.

HCC2218 = type: functional, cell-based;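 also: cell viability assay read-out, with IC50 given as the concentration that inhibits growth of the cell line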
Description: SANGER: Inhibition of human HCC2218 cell growth in a cell viability assay.

KURAMOCHI = type: functional, cell-based;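 also: growth inhibition of KURAMOCHI cells, read out with a cell viability assay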
Description: SANGER: Inhibition of human KURAMOCHI cell growth in a cell viability assay.

LB771-HNC = type: functional, cell-based;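 also: growth inhibition of LB771-HNC human cells, read out with a cell viability assay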
Description: SANGER: Inhibition of human LB771-HNC cell growth in a cell viability assay.

ES7 = type: functional, cell-based;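 also: growth inhibition of cultured human ES7 cells, read out as cell viability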
Description: SANGER: Inhibition of human ES7 cell growth in a cell viability assay.

MSTO-211H = type: functional, cell-based
Description: SANGER: Inhibition of human MSTO-211H cell growth in a cell viability assay.

For `N#C/C(=C1/Nc2ccccc2S1)c1ccnc(NCCc2cccnc2)n1`, the IC50 (EC-GI-10) was over 8 µM, the IC50 (NCI-H510A) was over 8 µM and the IC50 (Becker) was 4.34 µM. For the same compound, the IC50 (KU812 cell line) was 6.65 µM, the IC50 (LU-134-A) was over 8 µM and the IC50 (MHH-PREB-1) was over 8 µM. It also gave an IC50 (LU-139) of over 8 µM, an IC50 (ES1) of over 8 µM and an IC50 (HT) of over 8 µM. For the same compound, the IC50 (ONS-76) was over 8 µM, the IC50 (SK-N-FI) was over 8 µM and the IC50 (ATN-1) was over 8 µM. For the same compound, the IC50 (BB30-HNC) was over 8 µM, the IC50 (NCI-H446) was over 8 µM and the IC50 (LB2241-RCC) was over 8 µM. For the same compound, the IC50 (DMS-79) was over 8 µM, the IC50 (HDLM-2) was over 8 µM and the IC50 (JVM-3) was over 8 µM. The IC50 (OCI-AML2) was 4.65 µM, the IC50 (NB13) was over 8 µM and the IC50 (D283 Med) was over 8 µM. For the same compound, the IC50 (IST-MES1) was over 8 µM, the IC50 (OMC-1) was over 8 µM and the IC50 (CW-2) was over 8 µM. For the same compound, the IC50 (DU-4475) was over 8 µM, the IC50 (SW684) was over 8 µM and the IC50 (U-266) was over 8 µM. The IC50 (SW982) was 1.78 µM, the IC50 (GB-1) was over 8 µM and the IC50 (ES6) was 4.72 µM. It also gave an IC50 (CTB-1) of over 8 µM, an IC50 (SF-539) of over 8 µM and an IC50 (GI-1) of 3.71 µM. For the same compound, the IC50 (NCI-H1299) was 4.78 µM, the IC50 (MZ2-MEL) was over 8 µM and the IC50 697 was over 8 µM. It also gave an IC50 (MC116) of 3.17 µM, an IC50 (MV4-11) of 1.43 µM and an IC50 (BB65-RCC) of 6.71 µM. The IC50 (NB69) was over 8 µM, the IC50 (NH-12) was over 8 µM and the IC50 (NCI-H1770) was over 8 µM. It also gave an IC50 (ALL-PO) of 1.79 µM, an IC50 (TGBC24TKB) of over 8 µM and an IC50 (D-502MG) of over 8 µM. For the same compound, the IC50 (SW 954) was over 8 µM, the IC50 (SNU1) was over 8 µM and the IC50 (RPMI-8226) was over 8 µM. For the same compound, the IC50 (SNB-75) was 5.27 µM, the IC50 (ES3) was over 8 µM and the IC50 (J-RT3-T3-5) was over 8 µM. For the same compound, the IC50 (CP66-MEL) was over 8 µM, the IC50 (KG-1) was over 8 µM and the IC50 (Ramos-2G6-4C10) was over 8 µM. The IC50 (LS-513) was over 8 µM, the IC50 (DMS-114) was over 8 µM and the IC50 (SK-MEL-1) was over 8 µM. For the same compound, the IC50 (MLMA) was over 8 µM, the IC50 (KP-N-YS) was over 8 µM and the IC50 (MOLT-4) was over 8 µM. For the same compound, the IC50 (HCC2218) was over 8 µM, the IC50 (KURAMOCHI) was 3.51 µM and the IC50 (LB771-HNC) was over 8 µM. It also gave an IC50 (ES7) of 3.03 µM and an IC50 (MSTO-211H) of over 8 µM.
